Assay results reported in paper PMC13131050, “Nicotinamide-Loaded Peptoid Nanotubes for Energy Regeneration in Acute Brain Injury” (ACS Nano, 2026).
Structures can show the parent of a compound that is named as a salt.

Assays:
[1] = test system: BV-2 cells; assay: Intracellular ATP level (luminescent ATP detection kit) in BV-2 cells; format: cell-based, murine
Procedure: We prepared OGD media as previously described. , OGD media consisted of 120 mM sodium chloride (NaCl, MilliporeSigma), 5 mM potassium chloride (KCl, MilliporeSigma), 2 mM calcium chloride (CaCl2, MilliporeSigma), 1.25 mM monosodium phosphate anhydrous (NaH2PO4, MilliporeSigma), 2 mM magnesium sulfate (MgSO4, MilliporeSigma), 25 mM sodium bicarbonate (NaHCO3, MilliporeSigma), and 20 mM HEPES in DI water. The OGD medium was sterile-filtered (0.2 μm), titrated to pH 7.4 with 1 M hydrochloric acid (Thermo Fisher Scientific) or 1 M sodium hydroxide (Thermo Fisher Scientific), bubbled with nitrogen gas (Praxair, Danbury, CT, USA) for at least 10 min, and prewarmed to 37 °C prior to use. […] Following the addition of 50 μL of […] (DMSO), the absorbance was recorded by a Synergy H1 multimodal microplate reader at a wavelength of 540 nm. Cell viability was measured using the alamarBlue (aBlue) Cell Viability Reagent (Thermo Fisher Scientific). […] The plate was measured directly at 560/590 nm excitation/emission fluorescence on a Synergy H1 multimodal microplate reader. Readings were normalized to those of healthy controls. […] Data were collected using a Synergy H1 multimodal microplate reader. For the OGD studies, readings were normalized to the average value of the OGD controls.

[2] = test system: BV-2 cells; assay: MTT cell viability / cytotoxicity in healthy BV-2 cells; format: cell-based, murine; conditions: 3 doses equivalent to NAM-PNT, 24 h (Figure S11)
Procedure: Murine microglia BV-2 cells were purchased from ATCC (CRL-2469) and cultured based on previous literature. Briefly, BV-2 cells were cultured in cell culture media (CCM, high-glucose, phenol red-free DMEM supplemented with 10% FBS, 1% glutamine, and 1% 100 U/mL penicillin–streptomycin) at 37 °C under a 5% CO2 atmosphere. The passage number of BV-2 cells used in this study was between 7 and 15. At 70–80% confluency, BV-2 cells were passaged and seeded in a 96-well plate for further experiments. […] Cell cytotoxicity was identified by the standard 3-(4,5-dimethylthiazol-2-yl)-2,5-diphenyltetrazolium bromide (MTT) assay (Thermo Fisher Scientific) on healthy cells. After 24 h, cells were incubated with fresh media containing 10 μL of 12 mM MTT solution in PBS for 4 h. Following the addition of 50 μL of […] (DMSO), the absorbance was recorded by a Synergy H1 multimodal microplate reader at a wavelength of 540 nm. Cell viability was measured using the alamarBlue (aBlue) Cell Viability Reagent (Thermo Fisher Scientific). […] The plate was measured directly at 560/590 nm excitation/emission fluorescence on a Synergy H1 multimodal microplate reader. Readings were normalized to those of healthy controls. […] Data were collected using a Synergy H1 multimodal microplate reader. For the OGD studies, readings were normalized to the average value of the OGD controls.

[3] = test system: BV-2 cells; assay: Inhibition of DNS-PNT uptake by endocytic pathway inhibitors in BV-2 cells; format: cell-based, murine; conditions: inhibitor 10 μM, 1 h pre-incubation, DNS-PNT 20 μg/mL 24 h with or without inhibitor; confocal imaging
Procedure: BV-2 cells were seeded at a density of 10,000 cells per well in a 96-well plate and cultured for 2 days. […] Following uptake, the medium containing PNTs was collected, and the cells were further incubated in fresh CCM for 1 or 24 h to allow exocytosis. The supernatant was subsequently collected, and the cells were washed three times with PBS. […] Fluorescence intensity was measured directly at 335/518 nm excitation and emission using a Synergy H1 multimodal microplate reader. For inhibition studies, BV-2 cells were seeded in 35 mm culture dishes (VWR) at a density of 300,000 cells and cultured for 2 days. […] The inhibitors used were chlorpromazine hydrochloride (Sigma), cytochalasin D (Sigma), amiloride hydrochloride hydrate (Sigma), sucrose (Thermo Fisher Scientific), and genistein (Sigma). − After treatment, cells were incubated with LysoTracker (75 nM, Invitrogen) for 1 h and fixed with 10% formalin phosphate buffer (Thermo Fisher Scientific) for 10 min. Subsequently, cells were stained with Tomato Lectin (1 μg/mL, 1 h) and ToPro-3 (0.1 μg/mL, 15 min; Thermo Fisher Scientific) in PBS at room temperature. Confocal images were acquired using a Nikon microscope (40× and […] oil immersion objectives, 1.30 numerical aperture; Nikon Corporation, Minato City, Tokyo, Japan).

[4] = test system: OGD-exposed OWH brain slices; assay: Propidium iodide cell death in OGD-exposed OWH brain slices; format: cell-based, rat; conditions: OGD-exposed P10 OWH slices, cortex and striatum, 24 h treatment, n = 7
Procedure: All treatments were applied topically.
After 24 h of treatment, slices were stained with 1 mL of 5 μg/mL PI (Thermo Fisher Scientific) in SCM for 45 min under standard culture conditions as previously described. , The staining solution was placed underneath the inset. Slices were washed twice for 3 min each with sterile 1× PBS at room temperature, followed by a 1 h wash with 37 °C SCM under culturing conditions, and then fixed with 10% formalin phosphate buffer (Thermo Fisher Scientific) for 1 hour. Following two final washes with room temperature 1× PBS, slices were stored covered at 4 °C until they were ready for use. Within 2 weeks, slices were stained for 15 min with 0.1 μg/mL DAPI (Thermo Fisher Scientific) in 1× PBS at room temperature. Slices were washed twice for 3 min each with 1× PBS prior to imaging. […] For each image, DAPI+ cell nuclei (total cells) and PI+ cell nuclei (dead cells) that were also DAPI+ were counted manually in ImageJ (NIH) after applying an Otsu threshold and fluorescence cutoff to aid in visualization. , The fluorescence cutoff was kept consistent across all images. The PI+/DAPI+ cell ratio was expressed as the percentage of dead cells in an individual image.

[5] = test system: OGD-exposed BV-2 cells; assay: AlamarBlue cell viability / metabolic activity in OGD-exposed BV-2 cells; format: cell-based, murine; conditions: 10 min OGD, then treatment, normalized to OGD controls
Procedure: Murine microglia BV-2 cells were purchased from ATCC (CRL-2469) and cultured based on previous literature. Briefly, BV-2 cells were cultured in cell culture media (CCM, high-glucose, phenol red-free DMEM supplemented with 10% FBS, 1% glutamine, and 1% 100 U/mL penicillin–streptomycin) at 37 °C under a 5% CO2 atmosphere. The passage number of BV-2 cells used in this study was between 7 and 15. At 70–80% confluency, BV-2 cells were passaged and seeded in a 96-well plate for further experiments. […] Following the addition of 50 μL of […] (DMSO), the absorbance was recorded by a Synergy H1 multimodal microplate reader at a wavelength of 540 nm. Cell viability was measured using the alamarBlue (aBlue) Cell Viability Reagent (Thermo Fisher Scientific). […] The plate was measured directly at 560/590 nm excitation/emission fluorescence on a Synergy H1 multimodal microplate reader. Readings were normalized to those of healthy controls. […] Data were collected using a Synergy H1 multimodal microplate reader. For the OGD studies, readings were normalized to the average value of the OGD controls.

[6] = AFM dimensions (height, length) of peptoid nanotubes; format: physicochemical; conditions: nanotubes assembled from the named peptoid; ex-situ AFM on mica
Procedure: The lengths of PNTs can be adjusted through sonication.
PNTs were prepared using the slow evaporation method to self-assemble the peptoids. Typically, 1 μmol of peptoid was treated with 2 μL of trifluoroacetic acid (TFA) and dried under a flow of N2. Subsequently, 100 μL of acetonitrile was added, followed by the addition of 0.5 M NaOH. Deionized water was then added to bring the total volume to 200 μL. The samples were left at 4 °C for slow evaporation until a gel-like solution was obtained. Ex situ Atomic Force Microscopy (AFM) analysis was conducted using a Bruker MultiMode 8 in ScanAsyst mode at room temperature. For sample preparation, 1.5 μL of the self-assembled peptoid was diluted 40 times with deionized water and deposited on a mica substrate. After 5 min, Whatman filter paper was used to remove the solution, and then the dried mica substrate was further dried under N2 flow. The AFM probe consisted of silicon tips on silicon cantilevers (NCHV probes, k = 42 N/m, tip radius). Scanning electron microscopy (SEM) images were captured from the samples deposited on a silicon wafer using the Apreo2S scanning electron microscope by Thermo Fisher. The imaging process employed an ETD detector, an excitation voltage of 2 kV, a current of 0.2 nA, and a working distance of around 8 mm. […] XRD data were analyzed using custom Python scripts.

In the case of NC(=O)c1cccnc1 [free NAM, nicotinamide], the “Improvement of intracellular ATP level after OGD energy depletion” value ([1]; OGD-exposed BV-2 cells, free drug) is reported as “did not”, the “Cellular ATP level in healthy cells” value ([1]; healthy BV-2 cells, 24 h (Figure S16a)) is reported as “limited increase compared to NAM-PNTs” and the “Increase in cell viability with free drug (MTT)” value [2] is reported as “increase was not seen”.
In the case of O=c1c(-c2ccc(O)cc2)coc2cc(O)cc(O)c12 [genistein], the “Effect of inhibitor on DNS-PNT internalization into BV-2 cells” value (“Effect of inhibitor” below) [3] is reported as “significantly suppressed PNT signals”.
With NC(=O)C1=CN([C@@H]2O[C@H](COP(=O)(O)OP(=O)(O)OC[C@H]3O[C@@H](n4cnc5c(N)ncnc54)[C@H](O)[C@@H]3O)[C@@H](O)[C@H]2O)C=CC1 [free NAD+, β-nicotinamide adenine dinucleotide] the “Cell death (percentage of PI+ cells)” value [4] was “did not improve cell viability”, the “Metabolic activity / cell viability (AlamarBlue) versus OGD control” value [5] was “no effect” and the “Increase in cell viability with free drug (MTT)” value [2] was “increase was not seen”.
With C=C1[C@@H](C)[C@H]2[C@H](Cc3ccccc3)NC(=O)[C@]23[C@H](OC(C)=O)/C=C/[C@@](C)(O)C(=O)[C@@H](C)C/C=C/[C@H]3[C@@H]1O [Cytochalasin D, cytochalasin D] the “Effect of inhibitor” value [3] was “significantly suppressed PNT signals”.
With N=C(N)NC(=O)c1nc(Cl)c(N)nc1N [amiloride, amiloride hydrochloride hydrate] the “Effect of inhibitor” value [3] was “minimal impact”.
For CN(C)CCCN1c2ccccc2Sc2ccc(Cl)cc21 [chlorpromazine, chlorpromazine hydrochloride], the “Effect of inhibitor” value [3] was “minimal impact”.
In the case of Nbrpm6Nce3Nae3Nc2DNS [Pep-DNS], the “Height of nanotubes (ex-situ AFM)” value [6] is reported as 7.78 ± 0.07 nm.
In the case of OC[C@H]1O[C@@](CO)(O[C@H]2O[C@H](CO)[C@@H](O)[C@H](O)[C@H]2O)[C@@H](O)[C@@H]1O [sucrose], the “Effect of inhibitor” value [3] is reported as “reduced PNT uptake”.
